From US10526316B2, “Quinoxaline and pyridopyrazine derivatives as PI3Kβ inhibitors” (Janssen Pharmaceutica NV, priority 2015, dated 2020)

Columns and labels:
PI3Kβ = target: T1, PI3Kβ (Homo sapiens, UniProt P42338); assay: Enzyme binding assay (KINOMEscan, DiscoveRx); settings: PIK3Cβ_h, read-out: Kd PIK3Cβ_h
T1 construct: purchased DiscoveRx Corporation, San Diego (contract service, KINOMEscan)
Outline: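 Compounds are profiled for binding to the kinase using KINOMEscan. The affinity is then reported as an inhibitor Kd in nanomolar units.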

PI3Kδ = target: T2, PI3Kδ (Homo sapiens, UniProt O00329); assay: Enzyme binding assay (KINOMEscan, DiscoveRx); settings: PIK3Cδ_h
T2 construct: purchased DiscoveRx Corporation, San Diego (contract service, KINOMEscan)
T2 sequence (O00329 1-1044): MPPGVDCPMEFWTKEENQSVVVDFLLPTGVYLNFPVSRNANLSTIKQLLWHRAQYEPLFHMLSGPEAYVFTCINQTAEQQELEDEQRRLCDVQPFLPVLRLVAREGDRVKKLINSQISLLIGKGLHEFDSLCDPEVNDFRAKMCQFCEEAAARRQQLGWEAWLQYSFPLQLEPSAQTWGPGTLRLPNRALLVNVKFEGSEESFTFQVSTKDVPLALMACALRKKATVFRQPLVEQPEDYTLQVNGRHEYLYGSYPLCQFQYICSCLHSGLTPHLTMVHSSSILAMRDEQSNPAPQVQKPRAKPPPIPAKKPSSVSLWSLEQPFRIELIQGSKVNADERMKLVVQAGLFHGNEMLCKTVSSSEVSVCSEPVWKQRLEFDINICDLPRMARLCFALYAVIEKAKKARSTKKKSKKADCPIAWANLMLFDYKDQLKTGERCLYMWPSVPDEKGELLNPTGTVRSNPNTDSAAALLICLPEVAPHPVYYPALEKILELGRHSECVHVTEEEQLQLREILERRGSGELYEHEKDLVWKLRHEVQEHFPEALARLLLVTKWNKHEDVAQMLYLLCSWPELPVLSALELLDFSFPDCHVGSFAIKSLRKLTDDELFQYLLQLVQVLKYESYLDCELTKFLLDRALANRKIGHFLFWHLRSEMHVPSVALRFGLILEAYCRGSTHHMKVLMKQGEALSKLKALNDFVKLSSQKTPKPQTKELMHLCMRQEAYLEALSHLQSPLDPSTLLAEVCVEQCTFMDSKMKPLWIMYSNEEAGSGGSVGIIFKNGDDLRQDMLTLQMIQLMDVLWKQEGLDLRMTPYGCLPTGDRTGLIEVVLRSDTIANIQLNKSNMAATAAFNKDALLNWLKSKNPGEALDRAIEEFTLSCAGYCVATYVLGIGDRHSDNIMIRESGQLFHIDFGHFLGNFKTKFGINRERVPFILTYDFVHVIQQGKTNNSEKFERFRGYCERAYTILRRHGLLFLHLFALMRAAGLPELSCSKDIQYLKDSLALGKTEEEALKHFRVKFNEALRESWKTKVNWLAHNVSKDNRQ
Outline: (§1)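 Compounds were profiled by KINOMEscan to obtain kinase binding affinities.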

kinase enzymes [1] = target: T3, kinase enzymes (Homo sapiens, UniProt P42336); assay: Enzyme binding assay (KINOMEscan, DiscoveRx), further kinases of Table A; settings: PIK3Cα_h
T3 construct: purchased DiscoveRx Corporation, San Diego (contract service, KINOMEscan)
T3 sequence (P42336 whole entry): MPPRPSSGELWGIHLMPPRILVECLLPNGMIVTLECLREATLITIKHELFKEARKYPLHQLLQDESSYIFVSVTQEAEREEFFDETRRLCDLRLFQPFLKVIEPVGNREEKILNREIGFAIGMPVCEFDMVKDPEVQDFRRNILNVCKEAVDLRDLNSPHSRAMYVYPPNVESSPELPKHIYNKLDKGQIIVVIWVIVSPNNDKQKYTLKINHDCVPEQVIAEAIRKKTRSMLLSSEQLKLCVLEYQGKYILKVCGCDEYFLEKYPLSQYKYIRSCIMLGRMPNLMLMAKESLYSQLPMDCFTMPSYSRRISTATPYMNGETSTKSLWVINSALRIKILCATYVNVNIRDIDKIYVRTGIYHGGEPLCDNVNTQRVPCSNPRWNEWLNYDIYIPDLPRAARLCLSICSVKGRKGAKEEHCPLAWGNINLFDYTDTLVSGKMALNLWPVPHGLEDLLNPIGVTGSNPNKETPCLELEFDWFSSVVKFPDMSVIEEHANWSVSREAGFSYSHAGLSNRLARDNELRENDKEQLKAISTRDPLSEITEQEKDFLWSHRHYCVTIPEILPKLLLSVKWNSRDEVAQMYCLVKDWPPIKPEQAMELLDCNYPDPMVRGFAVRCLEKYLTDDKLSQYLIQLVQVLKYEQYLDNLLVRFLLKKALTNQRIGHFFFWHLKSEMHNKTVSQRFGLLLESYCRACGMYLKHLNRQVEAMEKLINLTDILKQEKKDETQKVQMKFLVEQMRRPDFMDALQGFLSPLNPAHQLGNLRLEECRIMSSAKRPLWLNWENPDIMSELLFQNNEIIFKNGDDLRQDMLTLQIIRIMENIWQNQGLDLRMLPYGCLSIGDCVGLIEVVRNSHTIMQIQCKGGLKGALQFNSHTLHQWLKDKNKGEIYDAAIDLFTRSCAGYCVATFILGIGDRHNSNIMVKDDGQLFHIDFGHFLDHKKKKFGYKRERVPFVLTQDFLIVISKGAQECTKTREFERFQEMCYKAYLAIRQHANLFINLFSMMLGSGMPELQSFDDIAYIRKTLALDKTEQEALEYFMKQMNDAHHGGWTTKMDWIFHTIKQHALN
Outline: as §1

kinase enzymes [2] = target: T4, kinase enzymes (Homo sapiens, UniProt P42345); assay: as above; settings: MTOR_h
T4 construct: purchased DiscoveRx Corporation, San Diego (contract service, KINOMEscan)
Outline: as §1

kinase enzymes [3] = target: T5, kinase enzymes (Homo sapiens, UniProt P48736); assay: as above; settings: PIK3Cγ_h
T5 construct: purchased DiscoveRx Corporation, San Diego (contract service, KINOMEscan)
T5 sequence (P48736 whole entry): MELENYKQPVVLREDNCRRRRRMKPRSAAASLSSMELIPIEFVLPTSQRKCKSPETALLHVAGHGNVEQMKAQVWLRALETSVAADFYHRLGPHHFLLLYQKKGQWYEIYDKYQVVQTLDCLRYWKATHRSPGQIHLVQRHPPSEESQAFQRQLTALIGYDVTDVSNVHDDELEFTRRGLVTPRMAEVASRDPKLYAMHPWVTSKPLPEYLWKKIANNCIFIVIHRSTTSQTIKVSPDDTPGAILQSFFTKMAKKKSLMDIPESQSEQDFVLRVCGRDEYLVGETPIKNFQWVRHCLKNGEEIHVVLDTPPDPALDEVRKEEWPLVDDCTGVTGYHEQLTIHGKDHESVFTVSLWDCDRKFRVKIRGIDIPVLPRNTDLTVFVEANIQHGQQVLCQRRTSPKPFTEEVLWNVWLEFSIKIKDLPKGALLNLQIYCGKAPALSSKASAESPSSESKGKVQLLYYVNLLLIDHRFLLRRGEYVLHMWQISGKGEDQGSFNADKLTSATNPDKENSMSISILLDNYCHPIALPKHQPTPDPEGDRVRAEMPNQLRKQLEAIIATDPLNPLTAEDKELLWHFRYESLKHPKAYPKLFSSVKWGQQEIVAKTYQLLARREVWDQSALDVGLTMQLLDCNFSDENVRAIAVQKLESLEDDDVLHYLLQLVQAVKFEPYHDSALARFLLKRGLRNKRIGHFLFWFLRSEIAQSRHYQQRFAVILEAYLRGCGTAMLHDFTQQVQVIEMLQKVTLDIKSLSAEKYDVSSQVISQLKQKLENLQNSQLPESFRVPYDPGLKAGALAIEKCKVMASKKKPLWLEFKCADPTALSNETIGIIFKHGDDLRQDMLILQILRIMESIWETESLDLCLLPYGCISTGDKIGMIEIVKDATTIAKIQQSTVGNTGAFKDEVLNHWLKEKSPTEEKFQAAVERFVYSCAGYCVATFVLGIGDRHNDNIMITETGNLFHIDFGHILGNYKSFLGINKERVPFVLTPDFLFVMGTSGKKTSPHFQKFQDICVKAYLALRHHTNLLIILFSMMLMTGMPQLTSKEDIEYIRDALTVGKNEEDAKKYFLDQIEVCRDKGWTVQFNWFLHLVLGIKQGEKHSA
Outline: as §1

[4] = tested on: Akt phosphorylated at Ser473 in PC-3 cells; assay: Cellular assay: phosphorylation of Akt at Ser473 in PC-3 cells (MSD ELISA); type: cell-based; settings: Homo sapiens, PC-3, 1 h, PC-3 cells, 60 min compound incubation, MSD ELISA; read-out: IC50 pAkt_S473
Outline: (§2)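 After lysis of treated cells (60 min, 37° C, 0.3% DMSO), phospho-Akt levels were measured by MSD electrochemiluminescence ELISA. Potency was derived from concentration-response curves fitted over five concentrations.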

[5] = tested on: Akt phosphorylated at Thr308 in PC-3 cells; assay: Cellular assay: phosphorylation of Akt at Thr308 in PC-3 cells (MSD ELISA); type: cell-based; settings: Homo sapiens, PC-3, 1 h, PC-3 cells, 60 min compound incubation, MSD ELISA; read-out: IC50 pAkt_Thr308
Outline: as §2

T1 sequence (P42338 whole entry): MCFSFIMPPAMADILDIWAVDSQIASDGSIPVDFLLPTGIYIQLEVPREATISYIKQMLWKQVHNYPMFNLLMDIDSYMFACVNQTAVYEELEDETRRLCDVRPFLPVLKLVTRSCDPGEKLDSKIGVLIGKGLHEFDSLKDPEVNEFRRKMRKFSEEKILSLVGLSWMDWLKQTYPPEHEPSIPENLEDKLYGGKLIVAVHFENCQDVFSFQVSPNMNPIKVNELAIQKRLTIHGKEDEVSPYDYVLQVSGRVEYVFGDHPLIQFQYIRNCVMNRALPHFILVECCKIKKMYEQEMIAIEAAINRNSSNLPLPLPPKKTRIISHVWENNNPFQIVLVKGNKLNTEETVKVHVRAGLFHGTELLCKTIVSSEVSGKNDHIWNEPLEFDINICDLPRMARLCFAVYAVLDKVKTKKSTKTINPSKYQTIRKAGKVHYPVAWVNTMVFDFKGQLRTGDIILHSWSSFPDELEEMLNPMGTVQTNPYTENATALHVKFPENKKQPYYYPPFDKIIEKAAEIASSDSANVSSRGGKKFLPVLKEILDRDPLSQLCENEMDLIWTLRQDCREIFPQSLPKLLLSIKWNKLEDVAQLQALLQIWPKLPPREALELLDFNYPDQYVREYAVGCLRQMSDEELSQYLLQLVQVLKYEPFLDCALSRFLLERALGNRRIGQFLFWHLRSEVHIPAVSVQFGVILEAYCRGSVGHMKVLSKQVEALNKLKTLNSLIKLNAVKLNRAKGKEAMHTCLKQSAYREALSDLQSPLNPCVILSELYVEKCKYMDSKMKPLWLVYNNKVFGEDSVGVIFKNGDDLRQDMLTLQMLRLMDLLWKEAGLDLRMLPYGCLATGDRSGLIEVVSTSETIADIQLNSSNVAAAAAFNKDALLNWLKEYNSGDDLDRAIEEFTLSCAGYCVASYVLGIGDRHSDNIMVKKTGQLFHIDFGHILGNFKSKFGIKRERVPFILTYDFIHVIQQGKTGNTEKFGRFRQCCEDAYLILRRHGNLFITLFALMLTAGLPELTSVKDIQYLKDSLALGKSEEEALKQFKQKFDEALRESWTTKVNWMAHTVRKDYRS

| SMILES | Kd (PI3Kβ) [nM] | Kd (PI3Kδ) [nM] | Kd (kinase enzymes [1]) [nM] | Kd (kinase enzymes [2]) [nM] | Kd (kinase enzymes [3]) [nM] | IC50 [4] [nM] | IC50 [5] [nM] | melting point [°C] |
| --- | --- | --- | --- | --- | --- | --- | --- | --- |
| CC(Nc1cc(Cl)cc(Cl)c1)c1cc(C(=O)N2CCOCC2)cc2ncc(N3CCOCC3)nc12 (stereo not drawn) [Compound 133] | 3 | 263 | 5750 | > 30200 | 26300 | 59 | 32 | 80 |
| COc1cc(NC(C)c2cc(C(=O)N3CCOCC3)cc3ncc(N4CCOCC4)nc23)cc(OC)c1 (stereo not drawn) [Compound 134] | 87 | 6310 | > 30200 | > 30200 | > 30200 | > 513 | > 513 | 80 |
| CC(Sc1ccccc1)c1cc(C(=O)N(C)C)cc2ncc(N3CCOCC3)nc12 (stereo not drawn) [Compound 135] | 195 | 3800 | 10000 | 11200 | 17400 | > 513 | > 513 | 144 |
| CC1CN(c2cnc3cc(C(=O)N(C)C)cc(C(C)Nc4cccc(F)c4)c3n2)CCO1 (stereo not drawn) [Compound 136] | 3 | 355 | 2340 | 15100 | 5130 | 178 | 65 | 184 |
| CCN1CCN(C(=O)c2cc(C3CCCN3c3cc(F)cc(F)c3)c3nc(N4CCOCC4)cnc3c2)CC1 (stereo not drawn) [Compound 142] | 0.5 | 59 | 209 | > 30200 | 741 | 10 | 7 | 80 |
| CCN1CCN(C(=O)c2cc(C(C)Nc3cc(F)cc(F)c3)c3nc(N4CCOCC4)cnc3c2)CC1 (stereo not drawn) [Compound 143] | 2 | 389 | 2820 | > 30200 | 9550 | 102 | 30 | 80 |
| CC(Nc1cc(F)cc(F)c1)c1cc(C(=O)N2CCN(C)CC2)cc2ncc(N3CCOCC3)nc12 (stereo not drawn) [Compound 144] | 2 | 437 | 1740 | > 30200 | 5620 | 59 | 28 | 80 |
| CC(Nc1cc(F)cc(F)c1)c1cc(C(=O)N(C)CCO)cc2ncc(N3CCOCC3)nc12 (stereo not drawn) [Compound 145] | 1 | 102 | 537 | 23400 | 1860 | ~32 | 9 | 80 |
| CC(Nc1cc(F)cc(Cl)c1)c1cc(C(=O)N2CCOCC2)cc2ncc(N3CCOCC3)nc12 (stereo not drawn) [Compound 146] | 2 | 933 | 1910 | > 30200 | 8130 | 83 | 38 | 80 |
| CNCCNC(=O)c1cc(C(C)Nc2cc(F)cc(Cl)c2)c2nc(N3CCOCC3)cnc2c1 (stereo not drawn) [Compound 147] | 0.4 | 129 | 776 | > 30200 | 1150 | 10 | 6 | 80 |
| CC(Nc1cc(F)cc(F)c1)c1cc(C(=O)NCCOCCN)cc2ncc(N3CCOCC3)nc12 (stereo not drawn) [Compound 149] | 2 | 398 | 2950 | > 30200 | 2340 | 251 | 138 | 80 |
| CC(Nc1ccccc1)c1cc(C(=O)N(C)C)cc2ncc(N3CCOCC3)nc12 (stereo not drawn) [Compound 150] | 3 | 501 | 2880 | > 30200 | 3720 | 138 | 91 | 110 |
| CC(Oc1ccccc1)c1cc(C(=O)N(C)C)cc2ncc(N3CCOCC3)nc12 (stereo not drawn) [Compound 151] | 8 | 813 | 3630 | > 30200 | 8710 | 490 | 66 | 80 |
| CC(Nc1cc(F)cc(F)c1)c1cncc2ncc(N3CCOCC3)nc12 (stereo not drawn) [Compound 153] | 8 | 1170 | 5370 | 16200 | 2690 | 316 | 316 | 90 |
| CC(Nc1cccc(C#N)c1)c1cc(C(=O)N(C)C)cc2ncc(N3CCOCC3)nc12 (stereo not drawn) [Compound 155] | 6 | 759 | 2140 | > 30200 | 6610 | 437 | 339 | 186 |
| CC(Nc1cc(F)cc(F)c1)c1cc(CNCC(F)F)cc2ncc(N3CCOCC3)nc12 (stereo not drawn) [Compound 164] | 4 | 1100 | 2400 | > 30200 | 13800 | 145 | 71 | 116 |
| CC(Nc1cc(F)cc(F)c1)c1cc(Br)cc2ncc(N3CCOCC3)nc12 (stereo not drawn) [Compound 167] | 26 | 7760 | 17400 | > 30200 | 12900 | > 513 | ~427 | 80 |
| CC(Nc1cc(F)cc(F)c1)c1cc(CN2CCOCC2)cc2ncc(N3CCOCC3)nc12 (stereo not drawn) [Compound 168] | 17 | 1860 | 3630 | > 30200 | > 30200 | 214 | 112 | 165 |
| CC(Nc1cc(F)cc(F)c1)c1cc(C(=O)NC(C)(C)CO)cc2ncc(N3CCOCC3)nc12 (stereo not drawn) [Compound 169] | 8 | 1120 | 4070 | 18600 | 5370 | 200 | 102 | 217 |
| CC(Nc1cc(F)c(F)c(F)c1)c1cc(C(=O)O)cc2ncc(N3CCOCC3)nc12 (stereo not drawn) [Compound 170] | 5 | 288 | 617 | 4370 | 2240 | > 513 | > 513 | 285 |
| CC(Nc1cc(F)cc(F)c1)c1cc(C(=O)N2CCN(CC(F)(F)F)CC2)cc2ncc(N3CCOCC3)nc12 (stereo not drawn) [Compound 171] | 3 | 575 | 2190 | > 30200 | > 30200 | 155 | 102 | 125 |
| CC(Nc1cc(F)cc(F)c1)c1cc(CNCCS(C)(=O)=O)cc2ncc(N3CCOCC3)nc12 (stereo not drawn) [Compound 173] | 1 | 372 | 832 | 24500 | 3550 | 78 | 52 | 80 |
| CC(Nc1cc(F)cc(F)c1)c1cc(C(=O)N(C)CCN(C)C)cc2ncc(N3CCOCC3)nc12 (stereo not drawn) [Compound 180] | 0.1 | 49 | 891 | > 30200 | 2190 | 3 | 1 | 148 |
| CC(Nc1cc(F)cc(F)c1)c1cc(C2=NC(C)(C)CO2)cc2ncc(N3CCOCC3)nc12 (stereo not drawn) [Compound 186] | 10 | 1780 | 6310 | > 30200 | 27500 | 339 | 182 | 80 |
